This is an account of results in patent US5696151A, “Compounds useful for the inhibition of the replication of HIV-1 and HIV-1 mutants” (priority 1995, dated 1997).

Assay type in all cases: cell-based
One series relates to HIV-1/188-Leu. Kind of series: Inhibition of HIV-1 induced syncytium formation in CEM cells, RT mutant 188-Leu. The settings on record: Human immunodeficiency virus 1, CCRF-CEM, 96 h, Table 2B, day 4, averages of 2 to 3 independent experiments, read-out: Antiviral Activity of Comparative Compounds EC50, 188-Leu. The source says:
(§1) CEM cells were obtained from the American Tissue Cell Culture Collection (Rockville, Md.). HIV-1(IIIB) was originally obtained from the culture supernatant of persistently HIV-1-infected H9 cells and was provided by R. C. Gallo and M. Popovic (National Cancer Institute, National Institutes of Health, Bethesda, Md.). […] 67: 5353-5359 (1993); HIV-1/Lys-138 ("Lys-138") was selected for resistance against TSAO-m^3T as described in Balzarini et al, Virology 192: 246-253 (1993) and Balzarini et al, Proc. Nat. Acad. Sci. USA 90: 6952-6956 (1993); HIV-1/181-Cys ("181-Cys") was selected for resistance against pyridinone L-697,661 as described in Balzarini et al, Virology 192: 246-253 (1993); and HIV-1/188-His ("188-His") was selected for resistance against HEPT as described in Balzarini et al, Mol. Pharmocol. 44: 694-701 (1993). 188-His was then further converted to HIV-1/188-Leu "188-Leu") upon further passage in cell culture in the absence of the HEPT.
(§2) CEM cells were suspended at ≈300,000 cells per ml of culture medium and infected with approximately 100 CCID50 (CCID50 being the 50% cell culture infective dose) of HIV-1(IIIB) or one of the HIV-1 RT mutant strains described above. Then 100 μl of the infected cell suspensions was added to 200 μl microtiter plate wells containing 100 μl of appropriate serial (5-fold) dilutions of the test compounds. The inhibitory effect of the test compounds on HIV-1 induced syncytium formation in CEM cells was examined microscopically on day 4 post infection.

Another series can be described thus: in vitro. The settings on record: human, cem cells, CC50 (50% cytostatic concentration), Table 2B; CEM cell proliferation; averages of 2 to 3 independent experiments. A digest of the protocol:
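Value is the 50% cytostatic concentration, the compound concentration that inhibits CEM cell proliferation by 50%. HIV-1(IIIB) and NNRTI-resistant variants selected in culture (Lys-138, 181-Cys, 188-His, 188-Leu) were used alongside.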

For another series, the system named is HIV-1/106-Ala. Briefly: Inhibition of HIV-1 induced syncytium formation in CEM cells, RT mutant 106-Ala. The settings on record: Table 2B, day 4, averages of 2 to 3 independent experiments; for EC50: Human immunodeficiency virus 1, CCRF-CEM, 96 h, read-out: Antiviral Activity of Comparative Compounds EC50, 106-Ala. The method in brief: (§3)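 CEM cells (≈300,000 cells/ml) were infected with about 100 CCID50 of HIV-1(IIIB) or an RT mutant strain and added to 5-fold serial dilutions of test compound. Inhibition of HIV-1-induced syncytium formation was scored microscopically on day 4 post infection.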

The subject of the next series is HIV-1/100-Ile. Kind of series: Inhibition of HIV-1 induced syncytium formation in CEM cells, RT mutant 100-Ile. The settings on record: Table 2B, day 4, averages of 2 to 3 independent experiments; for EC50: Human immunodeficiency virus 1, CCRF-CEM, 96 h, read-out: Antiviral Activity of Comparative Compounds EC50, 100-Ile. The method in brief:
as §3

The next series concerns HIV-1/Lys-138. Briefly: Inhibition of HIV-1 induced syncytium formation in CEM cells, RT mutant 138-Lys. The settings on record: Table 2B, day 4, averages of 2 to 3 independent experiments; for EC50: Human immunodeficiency virus 1, CCRF-CEM, 96 h, read-out: Antiviral Activity of Comparative Compounds EC50, 138-Lys. The method in brief:
as §3

The subject of the next series is HIV-1(IIIB). Kind of series: Inhibition of HIV-1 induced syncytium formation in CEM cells, wild type. Conditions: Table 2B, WT = HIV-1(IIIB), day 4, averages of 2 to 3 independent experiments; for EC50: Human immunodeficiency virus 1, IIIB, CCRF-CEM, 96 h, read-out: Antiviral Activity of Comparative Compounds EC50, WT. The method in brief:
as §3

A further series concerns HIV-1/181-Cys. Briefly: Inhibition of HIV-1 induced syncytium formation in CEM cells, RT mutant 181-Cys. The settings on record: Table 2B, day 4, averages of 2 to 3 independent experiments; for EC50: Human immunodeficiency virus 1, CCRF-CEM, 96 h, read-out: Antiviral Activity of Comparative Compounds EC50, 181-Cys. The method in brief: as §3
The test system of another series is HIV-1/103-Asn. Kind of series: Inhibition of HIV-1 induced syncytium formation in CEM cells, RT mutant 103-Asn. Conditions: Human immunodeficiency virus 1, CCRF-CEM, 96 h, Table 2B, day 4, averages of 2 to 3 independent experiments, read-out: Antiviral Activity of Comparative Compounds EC50, 103-Asn.
Excerpt: as §1, §2

≈ marks a conversion by molar mass, not a printed value. Bounds are passed on as bounds.

With `CC(C)=CCOc1cc(NC(=O)c2ccoc2C)ccc1Cl` [Compound 30], the concentration giving a half-maximal response (EC50) is more than 2 µg/mL in the series with HIV-1/188-Leu; 0.34 µg/mL (≈ 1.06 µM) in the series on HIV-1/106-Ala; 1.27 µg/mL (≈ 3.97 µM) with HIV-1/100-Ile; 0.23 µg/mL (≈ 0.719 µM) with HIV-1/Lys-138; 0.015 µg/mL (≈ 0.0469 µM) with HIV-1(IIIB); 0.65 µg/mL (≈ 2.03 µM) in the series on HIV-1/181-Cys. The concentration for a half-maximal effect (EC50) in the series with HIV-1/103-Asn worked out at 1.67 µg/mL (≈ 5.22 µM). In addition, the CC50 in “in vitro” is more than 100 µg/mL.
For `Cc1sccc1C(=S)Nc1ccc(Cl)c(C(=O)OC(C)C)c1` [Compound 16], the concentration giving a half-maximal response (EC50) was more than 2 µg/mL in the series on HIV-1/188-Leu; 0.077 µg/mL (≈ 0.218 µM) with HIV-1/106-Ala; 0.15 µg/mL (≈ 0.424 µM) with HIV-1/100-Ile; 0.03 µg/mL (≈ 0.0848 µM) in the series on HIV-1/Lys-138; 0.0041 µg/mL (≈ 0.0116 µM) in the series on HIV-1(IIIB); 0.1 µg/mL (≈ 0.283 µM) in the series on HIV-1/181-Cys. Also, in the series with HIV-1/103-Asn, the EC50 was 0.33 µg/mL (≈ 0.932 µM). Besides, it took 5.9 µg/mL (≈ 16.7 µM) to reach half-maximal cytotoxicity in “in vitro” (CC50).
Turning to `Cc1occc1C(=S)Nc1ccc(Cl)c(OCCC(C)C)c1` [Compound 44], the concentration for a half-maximal effect (EC50) in the series with HIV-1/188-Leu was more than 10 µg/mL; with HIV-1/106-Ala, 0.06 µg/mL (≈ 0.178 µM); in the series with HIV-1/100-Ile, 0.035 µg/mL (≈ 0.104 µM); in the series on HIV-1/Lys-138, 0.03 µg/mL (≈ 0.0888 µM); with HIV-1(IIIB), 0.0073 µg/mL (≈ 0.0216 µM); in the series with HIV-1/181-Cys, 0.08 µg/mL (≈ 0.237 µM). In addition, the concentration for a half-maximal effect (EC50) in the series on HIV-1/103-Asn worked out at 0.08 µg/mL (≈ 0.237 µM). This compound also registered a cytotoxic concentration (CC50) in “in vitro” of more than 100 µg/mL.
On to `CSc1sccc1C(=O)Nc1ccc(Cl)c(C=NOC(C)(C)C)c1` [Compound 36], for which the 50% effective concentration (EC50) with HIV-1/188-Leu was more than 2 µg/mL; with HIV-1/106-Ala, 0.85 µg/mL (≈ 2.22 µM); in the series with HIV-1/100-Ile, 1.23 µg/mL (≈ 3.21 µM); in the series on HIV-1/Lys-138, 0.85 µg/mL (≈ 2.22 µM); with HIV-1(IIIB), 0.18 µg/mL (≈ 0.47 µM); in the series on HIV-1/181-Cys it was 1.6 µg/mL (≈ 4.18 µM). Further, the 50% effective concentration (EC50) in the series with HIV-1/103-Asn is 1.2 µg/mL (≈ 3.13 µM). The compound further came in with a 50% cytotoxic concentration (CC50) in the series “in vitro” of 7.8 µg/mL (≈ 20.4 µM).
As to `CCC1=C(C(=O)Nc2ccc(Cl)c(C(=O)OC3CCCCC3)c2)SCCO1` [Compound 13], the EC50 with HIV-1/188-Leu was not below 2 µg/mL; in the series on HIV-1/106-Ala, 0.17 µg/mL (≈ 0.415 µM); in the series with HIV-1/100-Ile, 0.26 µg/mL (≈ 0.634 µM); in the series with HIV-1/Lys-138, 0.25 µg/mL (≈ 0.61 µM); in the series with HIV-1(IIIB), 0.08 µg/mL (≈ 0.195 µM); in the series with HIV-1/181-Cys, 0.07 µg/mL (≈ 0.171 µM). The EC50 with HIV-1/103-Asn came to 0.38 µg/mL (≈ 0.927 µM). In “in vitro”, the half-maximal cytotoxic concentration (CC50) amounted to 11.4 µg/mL (≈ 27.8 µM).
`CON=Cc1cc(NC(=O)c2ccoc2C)ccc1OC` [Compound 47]: the EC50 in the series on HIV-1/188-Leu was not below 10 µg/mL; in the series with HIV-1/106-Ala, not below 10 µg/mL; with HIV-1/100-Ile, not below 10 µg/mL; in the series with HIV-1/Lys-138 it was not below 10 µg/mL; in the series with HIV-1(IIIB), 0.23 µg/mL (≈ 0.798 µM); with HIV-1/181-Cys it was not below 10 µg/mL. The concentration for a half-maximal effect (EC50) with HIV-1/103-Asn was not below 10 µg/mL. In the series “in vitro”, the 50% cytotoxic concentration (CC50) was more than 100 µg/mL.
Take `CC1=C(C(=O)Nc2ccc(Cl)c(C(=O)OC(C(C)C)C(C)C)c2)SCCO1` [Compound 22]: the 50% effective concentration (EC50) in the series with HIV-1/188-Leu is more than 2 µg/mL; in the series with HIV-1/106-Ala it was 0.26 µg/mL (≈ 0.631 µM); with HIV-1/100-Ile it was 0.48 µg/mL (≈ 1.17 µM); with HIV-1/Lys-138, 0.55 µg/mL (≈ 1.34 µM); with HIV-1(IIIB) it was 0.08 µg/mL (≈ 0.194 µM); with HIV-1/181-Cys it was 0.18 µg/mL (≈ 0.437 µM). Also, the concentration giving a half-maximal response (EC50) in the series on HIV-1/103-Asn amounted to 0.65 µg/mL (≈ 1.58 µM). Further, the CC50 in the series “in vitro” amounted to 5.8 µg/mL (≈ 14.1 µM).
On to `Cc1sccc1C(=O)Nc1ccc(Cl)c(C(=O)OC2CCCCC2)c1` [Compound 23], for which the EC50 was more than 2 µg/mL in the series on HIV-1/188-Leu and not below 2 µg/mL in the series with HIV-1/103-Asn. Moreover, half-maximal cytotoxicity in “in vitro” (CC50) was put at 5.8 µg/mL (≈ 15.3 µM). Further, in the series on HIV-1/106-Ala, the “Antiviral Activity of Comparative Compounds EC50, 106-Ala” value is 0.22 µg/mL. For the same compound, the “Antiviral Activity of Comparative Compounds EC50, 100-Ile” value with HIV-1/100-Ile is 0.7 µg/mL. The “Antiviral Activity of Comparative Compounds EC50, 138-Lys” value in the series on HIV-1/Lys-138 came to 0.73 µg/mL. Besides, the “Antiviral Activity of Comparative Compounds EC50, WT” value in the series with HIV-1(IIIB) is 0.03 µg/mL. For the same compound, in the series on HIV-1/181-Cys, the “Antiviral Activity of Comparative Compounds EC50, 181-Cys” value was found to be 0.27 µg/mL.
As for `Cc1occc1C(=S)Nc1ccc(Cl)c(SCC(=O)OC(C)(C)C)c1` [Compound 17], the 50% effective concentration (EC50) is not below 2 µg/mL in the series with HIV-1/188-Leu; 0.3 µg/mL (≈ 0.754 µM) in the series with HIV-1/106-Ala; 0.49 µg/mL (≈ 1.23 µM) with HIV-1/100-Ile; 0.18 µg/mL (≈ 0.452 µM) in the series with HIV-1/Lys-138; 0.22 µg/mL (≈ 0.553 µM) in the series on HIV-1(IIIB); 0.45 µg/mL (≈ 1.13 µM) in the series with HIV-1/181-Cys. Also, in the series with HIV-1/103-Asn, the EC50 is 0.73 µg/mL (≈ 1.83 µM). The compound also gave a CC50 in the series “in vitro” of 7 µg/mL (≈ 17.6 µM).

The term EC50 denotes the concentration needed to bring the measured effect to its halfway point. As usually defined, the CC50 is the concentration that lowers cell viability or growth by half.
